Legend:
Brucella abortus CASDH = target: T1, Brucella abortus CASDH (Brucella abortus, UniProt Q2YPK8); conditions: endogenous putrescine, BL21speD, coexpressed with CASDC
T1 construct: gene BAB1_0364

[1] = target: T2, Psychromonas marina CASDH (Psychromonas marina, UniProt A0ABQ6DYR2); experiment: LC-MS of benzoylated spermidine in E. coli extract; assay type: cell-based; conditions: endogenous putrescine, BL21speD, coexpressed with CASDC
T2 sequence (A0ABQ6DYR2 1-405): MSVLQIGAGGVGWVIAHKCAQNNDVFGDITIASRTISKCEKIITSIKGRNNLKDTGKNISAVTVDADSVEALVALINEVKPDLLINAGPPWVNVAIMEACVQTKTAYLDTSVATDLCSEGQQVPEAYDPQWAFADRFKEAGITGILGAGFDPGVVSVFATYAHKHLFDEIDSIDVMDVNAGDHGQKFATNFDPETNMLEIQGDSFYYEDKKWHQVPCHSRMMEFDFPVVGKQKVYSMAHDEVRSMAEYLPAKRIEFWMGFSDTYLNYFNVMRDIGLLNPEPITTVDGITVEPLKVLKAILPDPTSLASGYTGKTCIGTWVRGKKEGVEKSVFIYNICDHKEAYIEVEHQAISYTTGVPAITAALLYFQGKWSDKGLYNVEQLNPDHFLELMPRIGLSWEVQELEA

NCCCCN [putrescine]
LC-MS of benzoylated spermidine in E. coli extract (Brucella abortus CASDH): all CASDH/CASDC pairs were able to synthesize spermidine in the spermidine-void BL21speD cells
LC-MS of benzoylated spermidine in E. coli extract [1]: all CASDH/CASDC pairs were able to synthesize spermidine in the spermidine-void BL21speD cells

Reference: publication PMC11999265, “New routes for spermine biosynthesis” (The Journal of Biological Chemistry, 2025)
